pIC50: −log10 of the molar value. Where “and” joins values, the source holds several entries; their conditions need not be identical. Equal entries are not always repeated.
System: 138582-337-R-J1-PDC complex spheroid viability
Experiment: Anticancer human tumor 138582-337-R-J1-PDC patient-derived Merkel cell tumor cell line growth inhibition
Conditions: for viability, T/C: stronger effect = lower value
Excerpt: Multicellular complex tumor spheroid response to LSD1 Inhibitor Iadademstat in combination with a variety of drugs and investigational agents in selected tumor cell lines
The current study was undertaken to assess response to LSD1 inhibitors in combination with standard-of-care drugs and investigational agents in solid tumor complex spheroid models as well as in the K-562 leukemia. Complex spheroids include a stromal component modeled by human endothelial cells (HUVEC) and fibroblasts modeled by human mesenchymal stem cells (MSCs). The concentration ranges selected for each drug and investigational agent were based upon clinically achievable concentrations if the clinical Cmax of the agent was known.
Compounds. The drugs and investigational agents used in this study are listed on Table 1. All of the agents used, including staurosporine (NSC755774) and gemcitabine (NSC613327), were obtained from the Developmental Therapeutics Program, NCI. FDA-approved anticancer drugs are available from the NCI at http://dtp.nci.nih.gov/branches/dscb/oncology_drugset_explanation.html. Drugs and investigational agents were >95% pure by proton nuclear magnetic resonance (NMR) and liquid chromatography/mass spectrometry (LC/MS). Stock solutions were prepared at 400x in DMSO, stored at -70 degrees C, and diluted in fresh medium prior to their use. The final concentration of DMSO in cell culture wells never exceeded 0.25% (v/v). The FDA-approved anticancer drug set is available from the Developmental Therapeutics Program at https://dtp.cancer.gov/organization/dscb/obtaining/available_plates.htm. All drugs and investigational agents were tested over a range starting from a high concentration at or near the clinical Cmax and decreasing in half-log increments. If the clinical Cmax for an agent had not been determined, the highest concentration tested was 10 microM.
Cell Lines. The patient-derived cancer cell (PDC) lines: 292921-168-R-J2-PDC, K24384-001-R-PDC, and 521955-158-R2-J5-PDC pancreatic carcinomas, 556581-035-R-J1 ovarian carcinoma, 324938-238-R-J1-PDC, 855422-203-R-J1-PDC and 883617-216-R-J1-PDC urothelial bladder carcinomas, 743489-274-T-PDC renal cell carcinoma, 138582-R-J1 Merkel cell tumor, K60290-347-R-J1 and K57222-313-R-J1-PDC glioblastomas, 653999-131-R-J2-PDC, LG0703-F948-PDC, and 349418-098-R-PDC non-small cell lung carcinomas, 885512-296-R-J2-PDC, 171881-019-R-J1-PDC breast carcinomas and 186277-243-T-J2-PDC and 233499-124-R-J2-PDC colon carcinomas were obtained from the NCI Patient-Derived Models Repository (PDMR, https://pdmr.cancer.gov). The established cell lines NCI/ADR-RES (RRID:CVCL_14520 and OVCAR-5 (RRID:CVCL_1628) ovarian carcinomas, 786-O (RRID:CVCL_1051) and A498 (RRID:CVCL_A498) renal cell carcinoma, NCI-H211 (ATCC, cat. CRL-5824; RRID:CVCL_1529), NCI-H196 (ATCC, cat. CRL-5823, RRID:CVCL_1509), SW 1271 (ATCC, cat. CRL-2177, RRID:CVCL_1716) and NCI-H1876 (ATCC, cat. CRL-5902, RRID:CVCL_1503) small cell lung carcinomas, MDA-MB-231 (RRID:CVCL_0062) and MDA-MB-468 (RRID:CVCL_0419)breast carcinomas (10-12). Pooled donor human umbilical vein endothelial cells (HUVEC, Lonza, cat. CC-2519) and human mesenchymal stem cells (hMSC, Lonza, cat. PT-2501) were purchased from Lonza (Walkersville, MD).
Cell Culture. All cells were maintained in an incubator at 37 degrees C and 5% CO2 with 95% humidity. The PDC lines were cultured according to standard operating procedures established by the NCI PDMR (https://pdmr.cancer.gov). Briefly all PDCs were thawed and cultured in Matrigel-coated flasks prepared with a working solution of 1X Ham's F-12 nutrient mix, without supplementation (Invitrogen, Waltham, MA, cat. 11765054), 100 U/mL penicillin-streptomycin (Invitrogen, cat. 15140122), and 2.5% Matrigel (Corning Inc., Corning, NY, cat. 354248) for the first three passages. […]
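Also: spheroids exposed to agents for 7 days.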
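For viability, T/C in this document: 100% = DMSO vehicle control viability.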

Structure (SMILES)	pIC50 (curve of compound)	viability, T/C (compound 0.00316 µM)	viability, T/C (compound 0.01 µM)	viability, T/C (compound 0.0316 µM)	viability, T/C (compound 0.1 µM)	viability, T/C (compound 0.316 µM)	viability, T/C (compound 1 µM)	viability, T/C (compound 0.00949 µM)	viability, T/C (compound 0.03 µM)	viability, T/C (compound 0.0949 µM)	viability, T/C (compound 0.3 µM)	also measured
CC1(C)CCC(CN2CCN(c3ccc(C(=O)NS(=O)(=O)c4ccc(NCC5CCOCC5)c([N+](=O)[O-])c4)c(Oc4cnc5[nH]ccc5c4)c3)CC2)=C(c2ccc(Cl)cc2)C1	< 5.00 and 5.45			95.7% and 61.2%	95.8% and 70.4%	89.5% and 69.6%	101% and 73.5%					viability, T/C (compound 3.16 µM): 101% and 55.5%
CC1COCCN1c1cc(-c2ccnn2C)c2ccnc(-c3ccn[nH]3)c2n1 (configuration not stated)		76.4% and 67.9%	86.4% and 64.7%	69.7% and 48.6%	61% and 34.3%	61% and 28.5%	39.8% and 25.1%					
CC1COCCN1c1cc(C2(S(C)(=N)=O)CC2)nc(-c2ccnc3[nH]ccc23)n1 (configuration not stated)	5.09 and 5.68			91.2% and 97.8%	85.4% and 99.9%	88.4% and 81.3%	83.1% and 59.1%					viability, T/C (compound 3.16 µM): 68.1% and 46.4%; viability, T/C (compound 10 µM): 45.8% and 38.9%
CCN(c1cc(-c2ccc(CN3CCOCC3)cc2)cc(C(=O)NCc2c(C)cc(C)[nH]c2=O)c1C)C1CCOCC1	< 5.52							86.8% and 93.2%	103% and 81.7%	82.1% and 70.6%	95.9% and 76.5%	viability, T/C (compound 0.949 µM): 95.5% and 69.7%; viability, T/C (compound 3 µM): 99.3% and 57.8%
COc1cc(C2c3cc4c(cc3C(OC3OC5COC(C)OC5C(O)C3O)C3COC(=O)C23)OCO4)cc(OC)c1O (configuration not stated)	< 5.52 and 6.44							81.8% and 78.6%	73.6% and 82.9%	78% and 57.8%	77.3% and 50.9%	viability, T/C (compound 0.949 µM): 73.4% and 48.3%; viability, T/C (compound 3 µM): 74.7% and 34.3%
COc1ccc([C@@H](O)c2cc(-c3ncnc4cc(N5CCOCC5)ccc34)c(F)cc2Cl)nn1	5.87 and 5.57			92.5% and 76.9%	79.5% and 91.7%	64.9% and 66.6%	50.7% and 71.1%					viability, T/C (compound 3.16 µM): 45.5% and 46%; viability, T/C (compound 10 µM): 27.3% and 20.6%
Cn1ncnc1C1c2n[nH]c(=O)c3cc(F)cc(c23)NC1c1ccc(F)cc1 (configuration not stated)	< 7.00	83.5% and 99.5%	86.7% and 92.9%	94.4% and 70.4%	91.1% and 67.1%							viability, T/C (compound 0.000316 µM): 96.7% and 103%; viability, T/C (compound 0.001 µM): 93.5% and 95.9%
NC1CC1c1ccc(-c2cccc(O)c2)cc1 (configuration not stated)					75.3%							pIC50 (compound alone, run of 02/01/2022): < 5.00
NC1CCC(NC2CC2c2ccccc2)CC1 (configuration not stated)						95.6% and 95.3%						pIC50 (compound alone, run of 01/24/2022): < 5.00
Nc1ccn(C2OC(CO)C(O)C2(F)F)c(=O)n1 (configuration not stated)	< 6.52							86.5% and 77.4%	82.4% and 55.1%	80% and 59.3%	112% and 53.6%	viability, T/C (compound 0.000949 µM): 80.2% and 102%; viability, T/C (compound 0.003 µM): 94.3% and 100%
Nc1ncn(C2CC(O)C(CO)O2)c(=O)n1 (configuration not stated)	< 6.00	102% and 109%	78.7% and 124%	90% and 123%	83.7% and 111%	112% and 122%	112% and 91.2%					
Nc1ncn(C2CC(O)C(CO)S2)c(=O)n1 (configuration not stated)	< 6.52							87.8% and 94.3%	94.6% and 92.3%	91.3% and 93.4%	80.5% and 74.7%	viability, T/C (compound 0.000949 µM): 96.8% and 93.8%; viability, T/C (compound 0.003 µM): 82.8% and 110%

Second part, led by results:

pIC50 (curve of compound)	Structure (SMILES)	viability, T/C (compound 0.00316 µM)	viability, T/C (compound 0.01 µM)	viability, T/C (compound 0.0316 µM)	viability, T/C (compound 0.1 µM)	viability, T/C (compound 0.316 µM)	viability, T/C (compound 1 µM)	viability, T/C (compound 0.00949 µM)	viability, T/C (compound 0.03 µM)	viability, T/C (compound 0.0949 µM)	viability, T/C (compound 0.3 µM)	also measured
9.04 and 9.33	CC(C)CC(NC(=O)C(Cc1ccccc1)NC(=O)c1cnccn1)B(O)O (configuration not stated)	0.75% and 0.32%	0.21% and 0.23%	0.25% and 0.21%	0.37% and 0.28%							viability, T/C (compound 0.000316 µM): 116% and 74.5%
8.13 and 8.08	CC(C)CC(NC(=O)CNC(=O)c1cc(Cl)ccc1Cl)B1OC(=O)CC(CC(=O)O)(C(=O)O)O1 (configuration not stated)	110% and 91.3%	30.4% and 42.1%	4.94% and 1.75%	0.38% and 0.44%							viability, T/C (compound 0.000316 µM): 105% and 94.4%; viability, T/C (compound 0.001 µM): 102% and 99.3%
< 5.00 and 5.43	CC(C)c1c(-c2ccccc2)nc2c(C#N)c[nH]n2c1=O			106% and 89.1%	92.4% and 85.5%	92.8% and 89.8%	97.1% and 71.4%					viability, T/C (compound 3.16 µM): 84.7% and 52.7%; viability, T/C (compound 10 µM): 85.2% and 40.5%
< 7.00	CC[C@@]1(O)C(=O)OCc2c1cc1n(c2=O)Cc2cc3c(CN(C)C)c(O)ccc3nc2-1	77.7% and 62.7%	83.7% and 57.4%	95% and 57.3%	85.6% and 47.7%							viability, T/C (compound 0.000316 µM): 91% and 92.2%; viability, T/C (compound 0.001 µM): 103% and 101%
8.06 and > 9.02	CCc1c2c(nc3ccc(O)cc13)-c1cc3c(c(=O)n1C2)COC(=O)[C@]3(O)CC							48.7% and 26.2%	11.6% and 0.27%	0.5% and 0.83%	0.52% and 0.33%	viability, T/C (compound 0.000949 µM): 71.5% and 50.2%; viability, T/C (compound 0.003 µM): 68.2% and 39%
< 6.00	COc1cc(Nc2ncc3c(n2)-c2ccc(Cl)cc2C(c2c(F)cccc2OC)=NC3)ccc1C(=O)O	102% and 63.7%	82.4% and 67.3%	76.8% and 63.6%	84.4% and 66.4%	79.4% and 61.6%	80.4% and 43.7%					
6.30 and 7.09	NS(=O)(=O)OCC1CC(n2ccc3c(NC4CCc5ccccc54)ncnc32)CC1O (configuration not stated)							96% and 74.9%	104% and 63.2%	93.9% and 50.6%	67.3% and 30.4%	viability, T/C (compound 0.949 µM): 28% and 26.4%; viability, T/C (compound 3 µM): 27.5% and 32.5%
5.94 and 6.55	Nc1ccccc1NC(=O)c1ccc(CNC(=O)OCc2cccnc2)cc1							96.2% and 67%	93.9% and 66.7%	86.3% and 61.3%	80.7% and 49.9%	viability, T/C (compound 0.949 µM): 61.3% and 13.2%; viability, T/C (compound 3 µM): 4.61% and 0.47%
6.21 and 7.07	O=C(C=Cc1cccc(S(=O)(=O)Nc2ccccc2)c1)NO							96.1% and 76.4%	91.5% and 67.6%	90% and 49.2%	73.3% and 23.6%	viability, T/C (compound 0.949 µM): 36% and 0.96%
8.00 and 7.89	O=C(C=Cn1cnc(-c2cc(C(F)(F)F)cc(C(F)(F)F)c2)n1)NNc1cnccn1	79.5% and 60.6%	49.6% and 56.1%	24.6% and 29.2%	15.6% and 17.7%	18.6% and 17.6%	16.4% and 15.4%					
< 5.00	O=C(c1cc(Cc2n[nH]c(=O)c3ccccc23)ccc1F)N1CCN(C(=O)C2CC2)CC1			106% and 90%	71.7% and 93.4%	96.6% and 98.8%	83.5% and 71.4%					viability, T/C (compound 3.16 µM): 78% and 57.2%; viability, T/C (compound 10 µM): 82.9% and 63.8%

From PubChem BioAssay AID1918931 (Molecular Pharmacology Branch, DTP, NCI, 2023)
